Results published in publication PMC5834492, “Antimycobacterial drug discovery using Mycobacteria-infected amoebae identifies anti-infectives and new molecular targets” (Scientific Reports, 2018).
Where two headings read alike, the source gives them in different places.

Legend:
[1] = system: D. discoideum GFP-ABD; settings: for D. discoideum GFP-ABD normalised growth, control=1.00, mean: 10 µM
[2] = system: M. marinum in BV2 microglial cells; assay type: cell-based, Mycobacterium marinum
[3] = system: BV2 cells
[4] = system: M. marinum luxCDABE; assay type: cell-based, Mycobacterium marinum
[5] = system: M. marinum in A. castellanii; assay type: cell-based, Mycobacterium marinum
[6] = system: Mtb H37Rv in THP-1; design: method as in Sorrentino et al, 2015; settings: ref Sorrentino et al, 2015, cited from earlier work; for Extracellular MIC90/ Inracellular MIC90: ratio
[7] = system: Mtb H37Rv; design: method as in Sorrentino et al, 2015; settings: ref Sorrentino et al, 2015; cited from earlier work
[8] = system: M. marinum GFP; assay type: cell-based, Mycobacterium marinum; settings: 10 µM; antibiotic assay
[9] = THP1 / Mtb H37Rv infection assay

Row | Compound | Growth inhibition / Cytotoxicity assays: D. discoideum GFP-ABD [1] | Intracellular infection assays: BV2 / M. marinum [2] | Growth inhibition / Cytotoxicity assays: BV2 cells [3] | Antibiotic assays: M. marinum luxCDABE [4] | Intracellular infection assays: A. castellanii / M. marinum [5] | Intracelullar MIC90 in THP-1 [6, 9] | Extracellular MIC90/ Inracellular MIC90 [6] | Extracellular MIC90 [7] | also measured
1 | O=C(OCc1c(F)cccc1Cl)c1ccc(-n2ncc(Cl)c(Cl)c2=O)cc1 [GSK1826825A] | 1.04 | 1.71 | False | 0.13 | 0.95 |  |  |  | 
2 | O=C(NCc1ccccc1F)N1CCN(Cc2ccc(Br)s2)CC1 [GSK1758774A] | 0.85 | 1.05 | False | 1.00 | 1.13 | 5.55 µM | 1.19 | 6.6 µM | 
3 | CCc1ccc(CN2CCC3(CC2)OCCc2sccc23)s1 [GSK2200160A] | 0.03 | 1.09 | False | 0.35 | 0.77 | 0.21 µM | 4.76 | 1 µM | 
4 | O=C(NC1=NCCS1)c1sc2cc(F)ccc2c1Cl [GSK1107112A] | 0.0367 | 1.29 | False | 0.10 | 0.90 |  |  |  | 
5 | c1ccc(-c2csc(Nc3nc4cc5c(cc4s3)OCO5)n2)nc1 [GSK735826A] | 0.86 | 1.47 | False | 0.00 | 0.98 | 1.85 µM | 1.46 | 2.7 µM | 
6 | CCc1ccc(C2CC(C(F)(F)F)n3ncc(C(=O)NCc4ccc(OC)cc4)c3N2)cc1 (stereo not shown) [GSK1589673A] | 1.16 | 1.29 | False | 1.00 | 1.34 | 0.61 µM | 8.03 | 4.9 µM | 
7 | COc1ccc2cc(C(=O)Nc3ccc(C4CCN(C)CC4)cc3)sc2c1 [GSK1635139A] | 0.78 | 1.15 | False | 1.00 | 1.28 | 50 µM | 0.19 | 9.5 µM | 
8 | NC(=O)c1cc(-c2ccsc2)ccc1OCCOc1ccccc1 [GSK1365028A] | 0.94 | 1.42 | False | 0.00 | 1.14 | >50 µM |  |  | 
9 | N=C(N)c1ccc(CCN2CCC(c3nc(COCC(F)(F)F)c(-c4ccc(F)cc4)o3)CC2)cc1.O=C(O)C(F)(F)F.O=C(O)C(F)(F)F [GI247341A] | 0.77 | 1.21 | False | 0.00 | 1.18 |  |  |  | 
10 | Cc1cccc(-c2nc(Nc3ccncn3)c3sccc3n2)n1 [GSK153890A] | 1.05 | 1.17 | False | 0.00 | 1.21 |  |  |  | 
11 | CCOc1ccc(OCc2ccc(C(=O)NNC(=O)c3ccc([N+](=O)[O-])o3)cc2)cc1 [GSK426032A] | 1.02 | 1.27 | False | 0.00 | 0.94 | >50 µM |  |  | 
12 | CCC(Sc1nc2ccccc2o1)C(=O)Nc1nccs1 (stereo not shown) [GSK829969A] | 0.94 | 1.56 | True | 0.00 | 1.58 |  |  |  | 
13 | O=C(Cc1ccc(F)cc1)Nc1nc(-c2ccccn2)cs1 [GSK1570606A] | 0.06 | 1.05 | False | 0.00 | 1.21 | >50 µM |  |  | 
14 | O=C(Nc1nnc(-c2ccc(Cl)s2)o1)c1ccc(Cl)s1 [GSK316438A] | 0.70 | 1.30 | False | 0.09 | 1.32 | >50 µM |  |  | 
15 | O=C(CCCSc1ccccc1)NNC(=O)c1cccs1 [GSK2157753A] | 1.04 | 1.67 | False | 0.11 | 1.00 | >50 µM |  |  | 
16 | CCc1c(C)nc(-n2nc(C)cc2NC(=O)c2ccccc2SC)[nH]c1=O [GSK1783710A] | 0.94 | 1.11 | False | 0.67 | 1.00 | >50 µM |  |  | 
17 | c1ccc(Cc2nnc(Sc3ccnc(N4CCN(c5ccncc5)CC4)n3)n2CCN2CCOCC2)cc1 [GSK547511A] | 1.02 | 1.36 | False | 0.13 | 0.94 | >50 µM |  |  | 
18 | O=C(c1cnn(C(=O)c2ccco2)c1)c1cc(F)ccc1O [GSK1310678A] | 1.12 | 1.17 | False | 0.00 | 0.98 |  |  |  | 
19 | c1ccc(-c2nnc(Sc3ccnc(N4CCN(c5ccncc5)CC4)n3)n2CCCN2CCOCC2)nc1 [GSK547543A] | 0.87 | 1.22 | False | 0.00 | 0.99 |  |  |  | 
20 | CC(C)(C)C(=O)CC1(O)Oc2ccccc2N=C1C=C(O)C(C)(C)C (stereo not shown) [GSK262906A] | 0.89 | 1.68 | False | 1.00 | 1.04 |  |  |  | 
21 | CN1CCN(c2ccc(C(F)(F)F)cc2NC(=O)c2ccccn2)CC1 [GSK1750922A] |  |  |  |  |  | 50 µM | 0.04 | 1.9 µM | D. discoideum GFP-ABD normalised growth, control=1.00, mean [1]: 0.29; IC50 [2]: 5.07 µM; BV2 / M. marinum normalised growth, control=1.00, mean ([2]; 10 µM): 0.94; M. marinum luxCDABE normalised growth, control=1.00, mean ([4]; 10 µM): 1.00; A. castellanii / M. marinum normalised growth, control=1.00, mean ([5]; 10 µM): 0.93; M. marinum GFP normalised growth, control=1.00, mean [8]: 0.91
22 | O=C(NNC(=O)c1ccc([N+](=O)[O-])o1)c1ccc2ccccc2c1 [GSK347301A] |  |  |  |  |  | 16.65 µM | 0.5 | 8.3 µM | D. discoideum GFP-ABD normalised growth, control=1.00, mean [1]: 0.49; IC50 [2]: 6.58 µM; BV2 / M. marinum normalised growth, control=1.00, mean ([2]; 10 µM): 0.97; M. marinum luxCDABE normalised growth, control=1.00, mean ([4]; 10 µM): 0.19; A. castellanii / M. marinum normalised growth, control=1.00, mean ([5]; 10 µM): 0.90; M. marinum GFP normalised growth, control=1.00, mean [8]: 1.03
23 | CN(C)S(=O)(=O)c1ccc(C(=O)Nc2nnc(-c3ccc(Cl)s3)o2)cc1 [GSK991960A] | 0.90 | 1.20 | False | 0.15 | 1.06 |  |  |  | 
24 | CNc1nc(SC)nc2ccccc12 [GSK353069A] |  |  |  |  |  | 0.07 µM | 2.86 | 0.2 µM | D. discoideum GFP-ABD normalised growth, control=1.00, mean [1]: 0.99; IC50 [2]: 1.31 µM; BV2 / M. marinum normalised growth, control=1.00, mean ([2]; 10 µM): 0.42; anti-infective properties in microglial cell (BV2) infection assay ([2]; 10 µM): strong anti-infective properties; hit in BV2/M. marinum assay True/False ([2]; 10 µM): TRUE; Intracelullar MIC90 in THP-1 ([6]; Mtb H37Rv-infected THP1 cells): 0.07 µM; M. marinum luxCDABE normalised growth, control = 1.00, mean ([4]; 10 µM): 0,00; M. marinum luxCDABE normalised growth, control=1.00, mean ([4]; 10 µM): 0.00; A. castellanii / M. marinum normalised growth, control=1.00, mean ([5]; 10 µM): 0.47; Hits A. castellanii/M. marinum assay True/False ([5]; 10 µM): TRUE; anti-infective properties in A. castellanii infection assay ([5]; 10 µM): strong anti-infective properties; M. marinum GFP normalised growth, control=1.00, mean [8]: 0.0149
